This is an account of results in PMC3410885, “6-Arylpyrido[2,3-d]pyrimidines as Novel ATP-Competitive Inhibitors of Bacterial D-Alanine:D-Alanine Ligase” (PLoS ONE, 2012).

In one data set the target is T1, E. coli DdlB (Escherichia coli, UniProt P07862).
T1 construct: polyhistidine (His) tag (N); made in house; host or cells: E. coli BL21(λDE3), vector pQE-30 UA (Qiagen)
As to the kind of experiment: Colorimetric malachite green inhibition assay of DdlB. It counts as biochemical. Particulars: for IC50: malachite green assay, 700 μM D-Ala, 500 μM ATP, 37°C, 20 min, read-out: inhibitory activity on DdlB: IC50. As for the experimental part:
All of the synthesized 6-arylpyrido[2,3-d]pyrimidines 11–36 were assayed for in vitro inhibitory activity on E. coli DdlB by detecting orthophosphate generated during the enzymatic reaction using a Malachite green assay.
Inhibition of DdlB was measured at different inhibitor and ATP concentrations in order to determine Ki values and the mode-of-action of both compounds.
The target compounds were tested for their ability to inhibit the D-Ala-adding activity of DdlB ligase with the colorimetric malachite green method in which orthophosphate generated during the reaction is measured. Each compound was tested in duplicate at 100, 250 or 500 μM in a mixture, final volume 50 μL, containing 50 mM Hepes (pH 8.0), 5 mM MgCl2, 10 mM (NH4)2SO4, 10 mM KCl, 700 μM D-Ala, 500 μM ATP, purified His-tagged DdlB (diluted in 50 mM Hepes (pH 7.2) and 1 mM DTT) and the test compound dissolved in DMSO. The final concentration of DMSO was 5% (v/v). The reaction mixture was incubated at 37°C for 20 min, then quenched with 100 μL of Biomol reagent and absorbance at 650 nm was measured after 5 min. To exclude possible promiscuous inhibitors, all compounds were tested in the presence of Triton-114 (0.005%). Residual activities were calculated relative to control assays without the compounds and with DMSO.

The next data set relates to E. coli 1411. As to the kind of experiment: MIC by broth microdilution, E. coli 1411. Particulars: for MIC: Escherichia coli, 1411, read-out: MIC 1411; for MIC 1411 +PMBN: with polymyxin B nonapeptide (4 μg/ml). It counts as cell-based. As to the method:
(§1) Selected DdlB inhibitors were tested for their antibacterial activity against two E. coli strains E. coli 1411 and E. coli AB734 (Table 2). […] Additionally, growth inhibition of efflux pump-deficient strains SM1411 (acrAB deficient derivative of 1411) and ES100 (tolC deficient derivative of AB734) was measured, and MICs were repeated for each strain in the presence of polymyxin B nonapeptide (PMBN) to assess the impact of outer-membrane permeability on antimicrobial activity.
(§2) Minimum inhibitory concentrations (MICs) were determined by broth microdilution against E. coli 1411, SM1411 (acrAB deficient derivative of 1411), AB734 and ES100 (tolC deficient derivative of AB734) according to CLSI guidelines. MICs were repeated for each strain in the presence of polymyxin B nonapeptide (4 μg/ml) to assess the impact of outer-membrane permeability on antimicrobial activity.

In the next data set the test system is E. coli AB734. As to the kind of experiment: MIC by broth microdilution, E. coli AB734. To be noted: for MIC: Escherichia coli, AB734, read-out: MIC AB734; for MIC AB734 +PMBN: with polymyxin B nonapeptide (4 μg/ml). The data set is classed as cell-based. As to the method: as §1, §2
The test system of data set [1] is SM1411 (acrAB deficient derivative of 1411). As to the kind of experiment: MIC by broth microdilution, SM1411. It counts as cell-based, E. coli. To be noted: for MIC: Escherichia coli, read-out: MIC SM1411 (acrAB); for MIC SM1411 +PMBN: with polymyxin B nonapeptide (4 μg/ml). As to the method:
as §1, §2

For data set [2], the system named is ES100 (tolC deficient derivative of AB734). As to the kind of experiment: MIC by broth microdilution, ES100. It counts as cell-based, E. coli. To be noted: for MIC: Escherichia coli, read-out: MIC ES100 (tolC); for MIC ES100 +PMBN: with polymyxin B nonapeptide (4 μg/ml). As to the method:
as §1, §2

Data set [3] deals with E. coli strains (1411, AB734, SM1411, ES100). As to the kind of experiment: Antibacterial activity stated for the E. coli strains together. The data set is classed as cell-based. Particulars: for antibacterial activity (in words): efflux-deficient, permeabilised cells. As for the experimental part: as §1, §2

≈ marks a conversion by molar mass, not a printed value. A value given as a limit tells only on which side of the number the result lay.

Take `COc1cc(OC)cc(-c2cc3cnc(NCCCN4CCOCC4)nc3nc2N)c1` [Compound 15, 6-(3,5-dimethoxyphenyl)-N2-(3-morpholinopropyl)pyrido[2,3-d]pyrimidine-2,7-diamine]: the melting point was 146 to 148 °C.
`Nc1ncc2cc(-c3cc(F)cc(F)c3)c(N)nc2n1` [Compound 20, 6-(3,5-difluorophenyl)pyrido[2,3-d]pyrimidine-2,7-diamine]: the melting point is over 300 °C.
Molecule `CC(C)(C)NC(=O)Nc1nc2nc(N)ncc2cc1-c1cc(Cl)cc(Cl)c1` [Compound 23, 1-(2-amino-6-(3,5-dichlorophenyl)pyrido[2,3-d]pyrimidin-7-yl)-3-tert-butylurea] showed a melting point of 179 to 182 °C. In addition, the IC50 at E. coli DdlB came to 383 µM. For the same molecule, in the data set on E. coli 1411, the MIC is over 256 µg/mL and the “MIC 1411 +PMBN” value was over 256 µg/mL. In addition, in the data set with E. coli AB734, the MIC was over 256 µg/mL and the “MIC AB734 +PMBN” value is over 256 µg/mL. Also, in data set [1], the MIC is over 256 µg/mL and the “MIC SM1411 +PMBN” value was 32 µg/mL (≈ 79 µM). In data set [2], the MIC was over 256 µg/mL and the “MIC ES100 +PMBN” value was 16 µg/mL (≈ 39.5 µM). The “antibacterial activity (in words)” value in data set [3] is given as “weak antibacterial activity”.
Take `CC(C)(C)NC(=O)Nc1nc2nc(N)ncc2cc1-c1cc(C(F)(F)F)cc(C(F)(F)F)c1` [Compound 19, 1-(2-amino-6-(3,5-bis(trifluoromethyl)phenyl)pyrido[2,3-d]pyrimidin-7-yl)-3-tert-butylurea]: the IC50 at E. coli DdlB came out at 260 µM. In the data set on E. coli 1411, the MIC was over 256 µg/mL and the “MIC 1411 +PMBN” value was over 256 µg/mL. In the data set on E. coli AB734, the MIC was over 256 µg/mL and the “MIC AB734 +PMBN” value was over 256 µg/mL. For the same molecule, in data set [1], the MIC is over 256 µg/mL and the “MIC SM1411 +PMBN” value is over 256 µg/mL. Besides, in data set [2], the MIC is over 256 µg/mL and the “MIC ES100 +PMBN” value came out at 64 µg/mL (≈ 135 µM). The “antibacterial activity (in words)” value in data set [3] was “weak antibacterial activity”.
Molecule `COc1cc(OC)cc(-c2cc3cnc(NCCCN(C)C)nc3nc2N)c1` [Compound 17, 6-(3,5-dimethoxyphenyl)-N2-(3-(dimethylamino)propyl)pyrido[2,3-d]pyrimidine-2,7-diamine] registered a melting point of 92 to 95 °C.
Regarding `Nc1nc2nc(NCCCN3CCOCC3)ncc2cc1-c1c(Cl)cccc1Cl` [Compound 28, 6-(2,6-dichlorophenyl)-N2-(3-morpholinopropyl)pyrido[2,3-d]pyrimidine-2,7-diamine], the melting point was in the range of 124 to 127 °C.
`COc1cc(OC)cc(-c2cc3cnc(N)nc3nc2N)c1` [Compound 13, 6-(3,5-dimethoxyphenyl)pyrido[2,3-d]pyrimidine-2,7-diamine]: the IC50 on E. coli DdlB stood at 908 µM. In addition, in the data set with E. coli 1411, the MIC was over 256 µg/mL and the “MIC 1411 +PMBN” value is over 256 µg/mL. In the data set on E. coli AB734, the MIC was over 256 µg/mL and the “MIC AB734 +PMBN” value was over 256 µg/mL. Further, in data set [1], the MIC was over 256 µg/mL and the “MIC SM1411 +PMBN” value stood at 128 µg/mL (≈ 431 µM). In addition, in data set [2], the MIC was over 256 µg/mL and the “MIC ES100 +PMBN” value amounted to 64 µg/mL (≈ 215 µM).
Molecule `CC(C)(C)NC(=O)Nc1nc2nc(N)ncc2cc1-c1ccc2c(c1)OCO2` [Compound 36, 1-(2-amino-6-(benzo[d][1,3]dioxol-5-yl)pyrido[2,3-d]pyrimidin-7-yl)-3-tert-butylurea] registered a melting point of over 300 °C.
As to `COc1cc(OC)cc(-c2cc3cnc(NCCCN4CCOCC4)nc3nc2NC(=O)NC(C)(C)C)c1` [Compound 16, 1-tert-butyl-3-(6-(3,5-dimethoxyphenyl)-2-(3-morpholinopropylamino)pyrido[2,3-d]pyrimidin-7-yl)urea], the concentration for half-maximal inhibition (IC50) at E. coli DdlB was 133 µM. For the same molecule, the “fold improved IC50 against DdlB compared to lead compound 33” value on E. coli DdlB (ratio of IC50 values, 16 against 33) turned out to be 3.4 fold. Further, in the data set on E. coli 1411, the MIC is over 256 µg/mL and the “MIC 1411 +PMBN” value was over 256 µg/mL. Moreover, in the data set with E. coli AB734, the MIC was over 256 µg/mL and the “MIC AB734 +PMBN” value is over 256 µg/mL. Also, in data set [1], the MIC was over 256 µg/mL and the “MIC SM1411 +PMBN” value turned out to be 128 µg/mL (≈ 244 µM). In data set [2], the MIC was over 256 µg/mL and the “MIC ES100 +PMBN” value stood at 128 µg/mL (≈ 244 µM). For the same molecule, in data set [3], the “antibacterial activity (in words)” value is listed as “weak antibacterial activity”.
`CN(C)CCCNc1ncc2cc(-c3c(Cl)cccc3Cl)c(N)nc2n1` [Compound 30, 6-(2,6-dichlorophenyl)-N2-(3-(dimethylamino)propyl)pyrido[2,3-d]pyrimidine-2,7-diamine]: the melting point fell in the range of 241 to 244 °C.
As to `CC(C)(C)NC(=O)Nc1nc2nc(N)ncc2cc1-c1c(F)cccc1Cl` [Compound 32, 1-(2-amino-6-(2-chloro-6-fluorophenyl)pyrido[2,3-d]pyrimidin-7-yl)-3-tert-butylurea], the melting point was over 300 °C.
For the molecule `CC(C)(C)NC(=O)Nc1nc2nc(N)ncc2cc1-c1c(Br)cccc1Br` [Compound 34, 1-(2-amino-6-(2,6-dibromophenyl)pyrido[2,3-d]pyrimidin-7-yl)-3-tert-butylurea], the IC50 at E. coli DdlB amounted to 583 µM. In addition, in the data set with E. coli 1411, the MIC was over 256 µg/mL and the “MIC 1411 +PMBN” value amounted to 32 µg/mL (≈ 64.8 µM). Also, in the data set on E. coli AB734, the MIC was over 256 µg/mL and the “MIC AB734 +PMBN” value came to 32 µg/mL (≈ 64.8 µM). In data set [1], the MIC is over 256 µg/mL and the “MIC SM1411 +PMBN” value is 4 µg/mL (≈ 8.09 µM). In addition, in data set [2], the MIC is 4 µg/mL (≈ 8.09 µM) and the “MIC ES100 +PMBN” value is 0,5 μg/ml. For the same molecule, the “antibacterial activity (in words)” value in data set [3] is “weak antibacterial activity”.
`Nc1ncc2cc(-c3cc(Cl)cc(Cl)c3)c(N)nc2n1` [Compound 22, 6-(3,5-dichlorophenyl)pyrido[2,3-d]pyrimidine-2,7-diamine] displayed a melting point of over 300 °C. Besides, the MIC in data set [3] (Escherichia coli, read-out: MICs against all strains) was over 256 µg/mL.
In the case of `Nc1ncc2cc(-c3c(F)cccc3Cl)c(N)nc2n1` [Compound 31, 6-(2-chloro-6-fluorophenyl)pyrido[2,3-d]pyrimidine-2,7-diamine], the melting point was over 300 °C.
Molecule `Nc1ncc2cc(-c3cc(C(F)(F)F)cc(C(F)(F)F)c3)c(N)nc2n1` [Compound 18, 6-(3,5-bis(trifluoromethyl)phenyl)pyrido[2,3-d]pyrimidine-2,7-diamine] gave a melting point of over 300 °C.
For the molecule `Nc1ncc2cc(-c3c(Cl)cccc3Cl)c(N)nc2n1` [Compound 26, 6-(2,6-dichlorophenyl)pyrido[2,3-d]pyrimidine-2,7-diamine], at E. coli DdlB, the IC50 is 529 µM. Moreover, in data set [1], the MIC is 2 µg/mL (≈ 6.53 µM) and the “MIC SM1411 +PMBN” value was 0,5 μg/ml. Besides, in data set [2], the MIC was 1 µg/mL (≈ 3.27 µM) and the “MIC ES100 +PMBN” value is on record as 0,25 μg/ml.
